Test results as given in patent EP4813463A2, “TYK2 INHIBITORS AND COMPOSITIONS AND METHODS THEREOF” (Lynk Pharmaceuticals Co. Ltd., priority 2023, dated 2024).
Like-named read-outs stand apart in the source and are kept apart here.

Tests used:
[1] = system: Ba/F3-FL-TYK2-P760L cells; experiment: Anti-proliferative assay in engineered Ba/F3 cells (Cell-Titer Glo, 72 h); type: cell-based; details: concentration that causes 50% growth inhibition, read-out: Baf3-FL-T2P760L
Summary of the method: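 Ba/F3 cells carrying Tel-dimerization/JAK kinase fusion, IL-3-independent, in RPMI-1640 + 10% FBS; 9-point 3-fold dilutions from 20 µM (0.1% DMSO) added after 24 h, 72 h at 37 °C. Viability by Cell-Titer Glo ATP luminescence; % inhibition versus DMSO cells, blank-corrected, giving IC50.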

TYK2-JH2 domain = biological target: T1, TYK2-JH2 domain (Homo sapiens, UniProt P29597); experiment: Binding activity test for JH2 domain of TYK2 (Tb-antibody/tracer FRET)
T1 construct: JAK1-JH2 domain or TYK2-JH2 domain enzyme in assay buffer
Summary of the method: (§1)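 Competitive TR-FRET binding: compounds dispensed as an 11-point 3-fold dilution series, then Tb-labelled antibody and tracer added to the JH2 protein system. Incubated at 25°C, then overnight at 4°C; FRET signal read on Envision and IC50 (nM) derived.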

JAK1-JH2 domain = biological target: T2, JAK1-JH2 domain (Homo sapiens, UniProt P23458); experiment: Binding activity test for JH2 domain of JAK1 (Tb-antibody/tracer FRET)
T2 construct: JAK1-JH2 domain or TYK2-JH2 domain enzyme in assay buffer
Summary of the method: as §1

[2] = Mus musculus, BaF3, 72 h, 72 h compound treatment
[3] = JH2 domain enzyme; 60 min at 25°C, then 4°C overnight; read-out: TYK2 JH2 Binding IC50
[4] = ratio of JAK1 JH2 to TYK2 JH2 binding IC50
[5] = JH2 domain enzyme; 60 min at 25°C, then 4°C overnight; read-out: JAK1 JH2 Binding IC50

T1 sequence (P29597 589-875 limits assumed): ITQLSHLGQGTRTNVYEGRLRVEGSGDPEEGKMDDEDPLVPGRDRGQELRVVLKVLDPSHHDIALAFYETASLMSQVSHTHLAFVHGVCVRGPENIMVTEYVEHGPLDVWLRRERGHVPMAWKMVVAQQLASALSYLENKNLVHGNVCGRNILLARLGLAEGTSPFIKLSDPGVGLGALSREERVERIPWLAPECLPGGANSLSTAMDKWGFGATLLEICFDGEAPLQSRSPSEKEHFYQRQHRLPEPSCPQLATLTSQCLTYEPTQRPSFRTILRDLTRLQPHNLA
T2 sequence (P23458 583-855 limits assumed): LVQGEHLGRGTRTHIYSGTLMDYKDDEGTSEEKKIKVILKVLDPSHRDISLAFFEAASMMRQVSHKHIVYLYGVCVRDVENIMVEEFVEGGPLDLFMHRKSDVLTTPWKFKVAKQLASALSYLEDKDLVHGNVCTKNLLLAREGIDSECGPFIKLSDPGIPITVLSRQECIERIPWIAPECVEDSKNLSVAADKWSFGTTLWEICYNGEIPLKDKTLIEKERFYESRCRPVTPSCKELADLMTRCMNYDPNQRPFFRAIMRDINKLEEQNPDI

## COc1c(-c2cnn(C)n2)ccnc1Nc1cc(NC(=O)C2CC2)ncc1C(C)(F)F [Example 177, N-(5-(1,1-Difluoroethyl)-4-((3-methoxy-4-(2-methyl-2H-1,2,3-triazol-4-yl)pyridin-2-yl)amino)pyridin-2-yl)cyclopropanecarboxamide]
[1]; [2]
  IC50: 15.2 nM
TYK2-JH2 domain; [3]
  IC50: 0.749 nM
TYK2-JH2 domain; [4]
  JAK1/TYK2 selectivity: 8.50
JAK1-JH2 domain; [5]
  IC50: 6.37 nM

## [2H]C([2H])([2H])CC(=O)c1cnc(NC(=O)C2CC2)cc1Nc1nn(C)c2ccc(C(OC)C(F)(F)F)c(OC)c12 (single isomer, unassigned) [Example 65B, (S*)-N-(4-((4-methoxy-1-methyl-5-(2,2,2-trifluoro-1-methoxyethyl)-1H-indazol-3-yl)amino)-5-(propanoyl-3,3,3-d3)pyridin-2-yl)cyclopropanecarboxamide]
[1]; 72 h compound treatment
  IC50: 2.1 nM
TYK2-JH2 domain; [3]
  IC50: 0.09 nM
TYK2-JH2 domain; [4]
  JAK1/TYK2 selectivity: 144.84
JAK1-JH2 domain; [5]
  IC50: 12.5 nM

## CCC(=O)c1cnc(NC(=O)C2CC2)cc1Nc1nn(C)c2ccc([C@H](O)C(F)(F)F)c(OC)c12 [Example 140, (S)-N-(4-((4-Methoxy-1-methyl-5-(2,2,2-trifluoro-1-hydroxyethyl)-1H-indazol-3-yl)amino)-5-propionylpyridin-2-yl)cyclopropanecarboxamide]
[1]; [2]
  IC50: 0.463 nM
TYK2-JH2 domain; [3]
  IC50: 0.061 nM
TYK2-JH2 domain; [4]
  JAK1/TYK2 selectivity: 71.43
JAK1-JH2 domain; [5]
  IC50: 4.36 nM

## COC(=O)c1cnc(NC(=O)C2CC2)cc1Nc1cccc(-c2ccn(C)n2)c1OC [Example 60, Methyl 6-(cyclopropanecarboxamido)-4-((2-methoxy-3-(1-methyl-1H-pyrazol-3-yl)phenyl)amino)nicotinate]
[1]; [2]
  IC50: 94.4 nM
TYK2-JH2 domain; [3]
  IC50: 0.546 nM
TYK2-JH2 domain; [4]
  JAK1/TYK2 selectivity: 32.87
JAK1-JH2 domain; [5]
  IC50: 17.9 nM

## CCC(F)(F)c1cnc(NC(=O)C2CC2)cc1Nc1nccc(-c2cnn(C)n2)c1OC [Example 174, N-(5-(1,1-difluoropropyl)-4-((3-methoxy-4-(2-methyl-2H-1,2,3-triazol-4-yl)pyridin-2-yl)amino)pyridin-2-yl)cyclopropanecarboxamide]
[1]; [2]
  IC50: 15.4 nM
TYK2-JH2 domain; [3]
  IC50: 0.86 nM
TYK2-JH2 domain; [4]
  JAK1/TYK2 selectivity: 71.45
JAK1-JH2 domain; [5]
  IC50: 61.4 nM

## CCOC(=O)c1cnc(NC(=O)C2CC2)nc1Nc1cccc(-c2ncn(C)n2)c1OC [Example 57, Ethyl 2-(cyclopropanecarboxamido)-4-((2-methoxy-3-(1-methyl-1H-1,2,4-triazol-3-yl)phenyl)amino)pyrimidine-5-carboxylate]
[1]; [2]
  IC50: 719 nM
TYK2-JH2 domain; [3]
  IC50: 7.33 nM
TYK2-JH2 domain; [4]
  JAK1/TYK2 selectivity: >40.75
JAK1-JH2 domain; [5]
  IC50: > 298 nM

## [2H]C([2H])([2H])n1nc(Nc2cc(NC(=O)C3CC3)ncc2C(=O)OC)c2c(OC)c([C@H](OC)C(F)(F)F)ccc21 [Example 52A, Methyl (S)-6-(cyclopropanecarboxamido)-4-((4-methoxy-1-(methyl-d3)-5-(2,2,2-trifluoro-1-methoxyethyl)-1H-indazol-3-yl)amino)nicotinate]
[1]; [2]
  IC50: 3.56 nM
TYK2-JH2 domain; [3]
  IC50: 0.082 nM
TYK2-JH2 domain; [4]
  JAK1/TYK2 selectivity: 501.71
JAK1-JH2 domain; [5]
  IC50: 41.1 nM

## COC(=O)c1cnc(NC(=O)C2CC2)cc1Nc1nn(C)c2ccc(C(OC)C(F)(F)F)c(OC)c12 (centres unmarked) [Example 45, Methyl 6-(cyclopropanecarboxamido)-4-((4-methoxy-1-methyl-5-(2,2,2-trifluoro-1-methoxyethyl)-1H-indazol-3-yl)amino)nicotinate]
[1]; [2]
  IC50: 8.61 nM
TYK2-JH2 domain; [3]
  IC50: 0.209 nM
TYK2-JH2 domain; [4]
  JAK1/TYK2 selectivity: 307.51
JAK1-JH2 domain; [5]
  IC50: 64.3 nM

## [2H]C([2H])([2H])O[C@@H](c1ccc2c(c(Nc3cc(NC(=O)C4CC45CC5)ncc3C(=O)OC)nn2C)c1OC)C(F)(F)F (stereo partly drawn) [Example 136, Methyl 4-((4-methoxy-1-methyl-5-((S)-2,2,2-trifluoro-1-(methoxy-d3)ethyl)-1H-indazol-3-yl)amino)-6-(spiro[2.2]pentane-1-carboxamido)nicotinate]
[1]; [2]
  IC50: 21.2 nM
TYK2-JH2 domain; [3]
  IC50: 0.21 nM
TYK2-JH2 domain; [4]
  JAK1/TYK2 selectivity: 370.63
JAK1-JH2 domain; [5]
  IC50: 77.8 nM

## [2H]C([2H])([2H])NC(=O)c1nnc(NC(=O)C2CC23CC3)cc1Nc1cnn2ccc([C@H](O)C(F)(F)F)c(OC)c12 (single isomer, unassigned) [Example 82B, 4-((4-Methoxy-5-((S)-2,2,2-trifluoro-1-hydroxyethyl)pyrazolo[1,5-a]pyridin-3-yl)amino)-N-(methyl-d3)-6-((S*)-spiro[2.2]pentane-1-carboxamido)pyridazine-3-carboxamide]
[1]; 72 h compound treatment
  IC50: 27 nM
TYK2-JH2 domain; [3]
  IC50: 0.23 nM
TYK2-JH2 domain; [4]
  JAK1/TYK2 selectivity: 27.48
JAK1-JH2 domain; [5]
  IC50: 6.32 nM

## [2H]C([2H])([2H])NC(=O)c1cnc(NC(=O)C2CC2)cc1Nc1cnn2ccc(C(C)(C)O)c(C)c12 [Example 34, 6-(Cyclopropanecarboxamido)-4-((5-(2-hydroxypropan-2-yl)-4-methylpyrazolo[1,5-a]pyridin-3-yl)amino)-N-(methyl-d3)nicotinamide]
[1]; [2]
  IC50: > 5000 nM
TYK2-JH2 domain; [3]
  IC50: 161 nM
TYK2-JH2 domain; [4]
  JAK1/TYK2 selectivity: >1.85
JAK1-JH2 domain; [5]
  IC50: > 298 nM

## COC(=O)c1cnc(NC(=O)C2CC2)cc1Nc1cccc(-c2ncn(C)n2)c1OC [Example 58, Methyl 6-(cyclopropanecarboxamido)-4-((2-methoxy-3-(1-methyl-1H-1,2,4-triazol-3-yl)phenyl)amino)nicotinate]
[1]; [2]
  IC50: 32.4 nM
TYK2-JH2 domain; [3]
  IC50: 0.304 nM
TYK2-JH2 domain; [4]
  JAK1/TYK2 selectivity: 39.30
JAK1-JH2 domain; [5]
  IC50: 11.9 nM

## [2H]C([2H])([2H])NC(=O)c1cnc(NC(=O)C2CC2)cc1Nc1nn(C)c2ccc([C@@H](OC([2H])([2H])[2H])C(F)(F)F)c(OC)c12 [Example 55B, (R)-6-(cyclopropanecarboxamido)-4-((4-methoxy-1-methyl-5-(2,2,2-trifluoro-1-(methoxy-d3)ethyl)-1H-indazol-3-yl)amino)-N-(methyl-d3)nicotinamide]
[1]; [2]
  IC50: 16.2 nM
TYK2-JH2 domain; [3]
  IC50: 0.08 nM
TYK2-JH2 domain; [4]
  JAK1/TYK2 selectivity: 153.54
JAK1-JH2 domain; [5]
  IC50: 12.3 nM

## [2H]C([2H])([2H])CC(=O)c1cnc(NC(=O)C2CC2)nc1Nc1cccc(-c2cnn(C)n2)c1OC [Example 167, N-(4-((2-methoxy-3-(2-methyl-2H-1,2,3-triazol-4-yl)phenyl)amino)-5-(propanoyl-3,3,3-d3)pyrimidin-2-yl)cyclopropanecarboxamide]
[1]; [2]
  IC50: 60.9 nM
TYK2-JH2 domain; [3]
  IC50: 0.275 nM
TYK2-JH2 domain; [4]
  JAK1/TYK2 selectivity: 116.34
JAK1-JH2 domain; [5]
  IC50: 32 nM

## COC(=O)c1c(Nc2nn(C)c3ccc(C(OC)C(F)(F)F)c(OC)c23)cc(NC(=O)C2CC2)nc1N (centres unmarked) [Example 96, Methyl 2-amino-6-(cyclopropanecarboxamido)-4-((4-methoxy-1-methyl-5-(2,2,2-trifluoro-1-methoxyethyl)-1H-indazol-3-yl)amino) nicotinate]
[1]; Mus musculus, BaF3, 72 h compound treatment
  IC50: 2990 nM
TYK2-JH2 domain; [4]
  JAK1/TYK2 selectivity: >3.19
TYK2-JH2 domain; read-out: TYK2 JH2 Binding IC50; JH2 domain enzyme; 60 min at 25°C, then 4°C overnight
  IC50: 93.6 nM
JAK1-JH2 domain; read-out: JAK1 JH2 Binding IC50; JH2 domain enzyme; 60 min at 25°C, then 4°C overnight
  IC50: > 298 nM

## [2H]C([2H])([2H])NC(=O)c1cnc(NC(=O)C2CC2)cc1Nc1cnn2cccc(OC)c12 [Example 44, 6-(Cyclopropanecarboxamido)-4-((4-methoxypyrazolo[1,5-a]pyridin-3-yl)amino)-N-(methyl-d3)nicotinamide]
[1]; [2]
  IC50: 356 nM
TYK2-JH2 domain; [3]
  IC50: 2.8 nM
TYK2-JH2 domain; [4]
  JAK1/TYK2 selectivity: 21.5
JAK1-JH2 domain; [5]
  IC50: 60.2 nM

## [2H]C([2H])([2H])NC(=O)c1cnc(NC(=O)[C@@H]2C[C@@H]2F)cc1Nc1cnn2ccc(C(F)(F)F)c(OC)c12 [Example 11, 6-((1S,2S)-2-fluorocyclopropane-1-carboxamido)-4-((4-methoxy-5-(trifluoromethyl)pyrazolo[1,5-a]pyridin-3-yl)amino)-N-(methyl-d3)nicotinamide]
[1]; [2]
  IC50: 54.5 nM
TYK2-JH2 domain; [3]
  IC50: 0.182 nM
TYK2-JH2 domain; [4]
  JAK1/TYK2 selectivity: 96.5
JAK1-JH2 domain; [5]
  IC50: 17.6 nM

## CCOC(c1ccc2c(c(Nc3cc(NC(=O)C4CC4)ncc3C(=O)OC)nn2C)c1OC)C(F)(F)F (single isomer, unassigned) [Example 106B, Methyl (S*)-6-(cyclopropanecarboxamido)-4-((5-(1-ethoxy-2,2,2-trifluoroethyl)-4-methoxy-1-methyl-1H-indazol-3-yl)amino)nicotinate]
[1]; [2]
  IC50: 5.49 nM
TYK2-JH2 domain; [3]
  IC50: 0.21 nM
TYK2-JH2 domain; [4]
  JAK1/TYK2 selectivity: 75.19
JAK1-JH2 domain; [5]
  IC50: 15.8 nM

## [2H]C([2H])([2H])NC(=O)c1cnc(Nc2cc(CN3CCOCC3)n(C)n2)cc1Nc1nn(C)c2ccc([C@H](OC)C(F)(F)F)c(OC)c12 [Example 182, (S)-4-((4-Methoxy-1-methyl-5-(2,2,2-trifluoro-1-methoxyethyl)-1H-indazol-3-yl)amino)-N-(methyl-d3)-6-((1-methyl-5-(morpholinomethyl)-1H-pyrazol-3-yl)amino)nicotinamide]
[1]; [2]
  IC50: 0.817 nM
TYK2-JH2 domain; [3]
  IC50: 0.141 nM
TYK2-JH2 domain; [4]
  JAK1/TYK2 selectivity: 13.95
JAK1-JH2 domain; [5]
  IC50: 1.97 nM

## CNC(=O)c1nnc(NC(=O)C2CC2)cc1Nc1cn(C)c2cccc(OC)c12 [Example 1, 6-(Cyclopropanecarboxamido)-4-((4-methoxy-1-methyl-1H-indol-3-yl)amino)-N-methylpyridazine-3-carboxamide]
[1]; [2]
  IC50: 1170 nM
TYK2-JH2 domain; [3]
  IC50: 2.33 nM
TYK2-JH2 domain; [4]
  JAK1/TYK2 selectivity: 8.4
JAK1-JH2 domain; [5]
  IC50: 19.5 nM
